According to patent publication US10174384B2, “Use of the ZMIZ1 marker in directing treatment and predicting survival in cancer” (THE JOHNS HOPKINS UNIVERSITY, priority 2015, dated 2019):

Test system: U251 cell line
Assay: Cell titer glo viability, siRNA combined with temozolamide
Type: cell-based
Details: three days post treatment, combined with 1 mM temozolamide, p<0.0001 vs siRNA alone, P<0.01 vs temozolamide alone
Source text: siRNA s32836 targeting both the full ZMIZ1 transcript (uc001kaf.2) and the truncated ZMIZ1 transcript (uc001kag.2) was purchased from Life Technologies (Grand Island, N.Y., USA), and two custom designed Stealth siRNAs (referred to as 56 and 62) targeting specifically uc001kag.2 were designed (Life Technologies) for all in vitro assays. The sequence of stealth_56 is Sense: […] (SEQ ID NO:23), Anti-Sense: […] (SEQ ID NO:24), the sequence for stealth_62 is Sense: […] (SEQ ID NO:25), Anti-Sense: […] (SEQ ID NO:26). Appropriate scrambled siRNAs were used as controls. Hyper-expressing plasmids were designed for both the full and the truncated plasmids. Appropriate empty vector was used as control for all in vitro assays described. Cells were transfected using Lipofectamine 2000 and the respective siRNA or plasmid and were treated for 6 h. The media was changed after 6 h and the regular culture media was subsequently used.
U87 and U251 GBM cell lines were treated with varying doses of temozolamide (Sigma Aldrich, St Louis, Mo.). 1000 cells/well were seeded in a 96 well plate. […] Cells were followed for 3 days, and at the third day, viability was assessed with the cell titer glo assay.

56 siRNA: custom designed Stealth siRNA targeting specifically uc001kag.2; Sense SEQ ID NO:23, Anti-Sense SEQ ID NO:24 (sense CCGGUGCAACUUCUAGCCUUGUUGU; antisense ACAACAAGGCUAGAAGUUGCACCGG; Stealth siRNA, chemical modification pattern not given here)
viability, combination compared to siRNA alone or temozolamide alone: statistically significant decrease in viability
